Entries after “also recorded” stand apart in the source; their conditions may differ. Like-named read-outs stand apart in the source and are kept apart here.
Tests used:
IFNG = system: IFNG; design: species or system human
TNFSF10 = system: TNFSF10; design: species or system human
CXCL1 = system: CXCL1; design: species or system human
aromatase = aromatase (Homo sapiens, UniProt P11511); settings: in vivo; cited from earlier work
CCL11 = experiment: Drugs that upregulate or downregulate iAge marker (Table 9); design: species or system human; settings: GENE CCL11; beneficial (lowers) or detrimental (raises) to iAge
MIG = system: MIG; design: species or system human
Mouse thoracic aortas = experiment: Acetylcholine relaxation of mouse thoracic aortic rings on wire myograph after MIG; settings: increasing concentrations of recombinant mouse MIG, precontracted with U46619
Procedure: Mouse thoracic aortas were carefully dissected, and vessels were cut into small rings and mounted on an isometric wire myograph chambers (Danish Myo Technology) and subjected to a normalization protocol. Following normalization, the vessels were incubated with either PBS or different concentrations of recombinant mouse MIG (R&D systems, catalog number 492-MM). A concentration-dependent contraction curve was created by accumulative application of the prostaglandin agonist U46619. Subsequently, concentration-dependent relaxation curves of Acetylcholine were conducted on these vessels and percent relaxation calculated for each dose.

[1] = GENE IFNG, beneficial (lowers) or detrimental (raises) to iAge
[2] = GENE CXCL1, beneficial (lowers) or detrimental (raises) to iAge
[3] = GENE TNFSF10, beneficial (lowers) or detrimental (raises) to iAge
[4] = GENE CXCL9 (MIG), beneficial (lowers) or detrimental (raises) to iAge

TNFSF10, sequence (P50591 whole entry): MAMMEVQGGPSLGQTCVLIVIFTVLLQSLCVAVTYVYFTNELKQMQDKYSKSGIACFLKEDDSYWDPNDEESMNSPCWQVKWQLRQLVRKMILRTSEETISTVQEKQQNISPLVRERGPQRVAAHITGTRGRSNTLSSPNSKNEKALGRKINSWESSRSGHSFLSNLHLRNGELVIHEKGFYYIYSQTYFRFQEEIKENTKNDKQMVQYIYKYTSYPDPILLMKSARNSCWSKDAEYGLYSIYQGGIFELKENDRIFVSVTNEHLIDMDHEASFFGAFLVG
aromatase, sequence (P11511 whole entry): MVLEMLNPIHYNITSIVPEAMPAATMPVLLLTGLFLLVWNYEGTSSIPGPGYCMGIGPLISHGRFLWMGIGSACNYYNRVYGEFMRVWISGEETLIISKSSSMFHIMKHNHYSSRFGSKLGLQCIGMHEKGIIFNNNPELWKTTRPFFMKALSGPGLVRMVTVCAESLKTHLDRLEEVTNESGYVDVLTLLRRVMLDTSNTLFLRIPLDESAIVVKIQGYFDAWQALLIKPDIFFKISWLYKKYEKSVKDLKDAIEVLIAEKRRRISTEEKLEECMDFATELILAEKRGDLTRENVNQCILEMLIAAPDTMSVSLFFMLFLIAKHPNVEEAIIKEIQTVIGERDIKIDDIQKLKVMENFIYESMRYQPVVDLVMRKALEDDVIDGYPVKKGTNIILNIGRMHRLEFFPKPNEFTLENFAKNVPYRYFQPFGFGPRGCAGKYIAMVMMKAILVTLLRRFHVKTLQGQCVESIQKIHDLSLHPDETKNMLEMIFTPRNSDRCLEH

## O.O.O.O.O.O.O.O.O.O=C([O-])[C@@H]1[O][Sb]2([O-])([O][Sb]34([OH])[O][C@H]([C@H](O)CO)[C@H]([O]3)[C@H](C(=O)[O-])[O]4)[O][C@H]([C@H](O)CO)[C@@H]1[O]2.[Na+].[Na+].[Na+] [Sodium stibogluconate]
IFNG; [1]
  EFFECT: Detrimental

## CC(=O)Nc1ccc(O)cc1 [Acetaminophen]
TNFSF10
  EFFECT: Detrimental

## O=O [Oxygen]
TNFSF10
  EFFECT: Beneficial
IFNG
  EFFECT: Beneficial

## CN1C(C(=O)Nc2ccccn2)=C(O)c2ccccc2S1(=O)=O [Piroxicam]
CXCL1; [2]
  EFFECT: Detrimental

## [Ag] [Silver]
TNFSF10; [3]
  EFFECT: Detrimental

## NC(=O)c1ncn([C@@H]2O[C@H](CO)[C@@H](O)[C@H]2O)n1 [Ribavirin, reference compound]
IFNG; [1]
  EFFECT: Detrimental

## CCCCCc1cc(O)c2c(c1)OC(C)(C)[C@@H]1CCC(C)=C[C@@H]21 [Dronabinol, reference compound]
IFNG; [1]
  EFFECT: Detrimental

## N#Cc1ccc(C(c2ccc(C#N)cc2)n2cncn2)cc1 [Letrozole]
aromatase
  reduction of estrogen levels: 98%

## [Fe] [Iron]
TNFSF10; [3]
  EFFECT: Beneficial

## CC(C)C[C@H](NC(=O)[C@H](Cc1ccccc1)NC(=O)c1cnccn1)B(O)O [Bortezomib, reference compound]
TNFSF10; [3]
  EFFECT: Detrimental
CXCL1; [2]
  EFFECT: Beneficial

## Vitamin E
TNFSF10; [3]
  EFFECT: Detrimental

## CN/C(=N/CCSCc1nc[nH]c1C)NC#N [Cimetidine]
IFNG
  EFFECT: Beneficial

## O=C([O-])CC([S-])C(=O)[O-].[Au+].[Na+].[Na+] (stereo not drawn) [Sodium aurothiomalate]
CXCL1; [2]
  EFFECT: Detrimental

## Oc1cccc2cccnc12 [Oxyquinoline]
TNFSF10
  EFFECT: Beneficial

## Cn1c(=O)c2[nH]cnc2n(C)c1=O [Theophylline]
IFNG
  EFFECT: Detrimental

## CC(=O)CCCCn1c(=O)c2c(ncn2C)n(C)c1=O [Pentoxifylline, reference compound]
TNFSF10; [3]
  EFFECT: Beneficial

## [Gd] [Gadolinium]
IFNG; [1]
  EFFECT: Beneficial

## NCCc1c[nH]cn1 [Histamine, reference compound]
IFNG
  EFFECT: Detrimental

## CC1=C(/C=C/C(C)=C/C=C/C(C)=C/C(=O)O)C(C)(C)CCC1 [Tretinoin, reference compound]
TNFSF10; [3]
  EFFECT: Beneficial
IFNG; [1]
  EFFECT: Detrimental
CXCL1; [2]
  EFFECT: Detrimental

## CN(Cc1cnc2nc(N)nc(N)c2n1)c1ccc(C(=O)N[C@@H](CCC(=O)O)C(=O)O)cc1 [methotrexate, Methotrexate, reference compound]
TNFSF10; [3]
  EFFECT: Beneficial
CCL11
  EFFECT: Beneficial
IFNG; [1]
  EFFECT: Detrimental
CXCL1; [2]
  EFFECT: Detrimental; also recorded: Beneficial

## [Cr] [Chromium]
TNFSF10; [3]
  EFFECT: Detrimental

## C=CC[C@@H]1/C=C(\C)C[C@H](C)C[C@H](OC)[C@H]2O[C@@](O)(C(=O)C(=O)N3CCCC[C@H]3C(=O)O[C@H](/C(C)=C/[C@@H]3CC[C@@H](O)[C@H](OC)C3)[C@H](C)[C@@H](O)CC1=O)[C@H](C)C[C@@H]2OC [Tacrolimus]
CCL11
  EFFECT: Beneficial

## Nc1ccn([C@@H]2O[C@H](CO)[C@@H](O)[C@@H]2O)c(=O)n1 [Cytarabine]
TNFSF10; [3]
  EFFECT: Beneficial

## [Zn] [Zinc]
CCL11
  EFFECT: Detrimental
IFNG; [1]
  EFFECT: Beneficial

## CC1=C(/C=C/C(C)=C/C=C/C(C)=C\C(=O)O)C(C)(C)CCC1 [Isotretinoin]
TNFSF10; [3]
  EFFECT: Beneficial
CXCL1; [2]
  EFFECT: Detrimental

## Nc1ccn([C@@H]2O[C@H](CO)[C@@H](O)C2(F)F)c(=O)n1 [Gemcitabine]
CXCL1; [2]
  EFFECT: Beneficial

## CC#C[C@]1(O)CC[C@H]2[C@@H]3CCC4=CC(=O)CCC4=C3[C@@H](c3ccc(N(C)C)cc3)C[C@@]21C [Mifepristone]
CXCL1; [2]
  EFFECT: Detrimental

## COc1cc(CNC(=O)CCCC/C=C/C(C)C)ccc1O [Capsaicin, reference compound]
TNFSF10; [3]
  EFFECT: Beneficial

## C[C@]12C=CC(=O)C=C1CC[C@@H]1[C@@H]2[C@@H](O)C[C@@]2(C)[C@H]1CC[C@]2(O)C(=O)CO [Prednisolone]
CXCL1
  EFFECT: Detrimental

## [Se] [Selenium]
TNFSF10; [3]
  EFFECT: Detrimental
MIG; [4]
  EFFECT: Beneficial
CXCL1; [2]
  EFFECT: Beneficial

## CC(=O)[C@H]1CC[C@H]2[C@@H]3CCC4=CC(=O)CC[C@]4(C)[C@H]3CC[C@]12C [Progesterone]
TNFSF10; [3]
  EFFECT: Detrimental
MIG; [4]
  EFFECT: Detrimental
CXCL1; [2]
  EFFECT: Detrimental

## CC[C@]1(O)C[C@H]2CN(CCc3c([nH]c4ccccc34)[C@@](C(=O)OC)(c3cc4c(cc3OC)N(C=O)[C@H]3[C@@](O)(C(=O)OC)[C@H](OC(C)=O)[C@]5(CC)C=CCN6CC[C@]43[C@@H]65)C2)C1 [Vincristine]
TNFSF10; [3]
  EFFECT: Beneficial
IFNG; [1]
  EFFECT: Beneficial
MIG; [4]
  EFFECT: Detrimental

## Oc1ccc(/C=C/c2cc(O)cc(O)c2)cc1 [Resveratrol, 3,5,4′-trihydroxy-trans-stilbene]
CCL11
  EFFECT: Beneficial
IFNG; [1]
  EFFECT: Detrimental
CXCL1; [2]
  EFFECT: Detrimental

## CC1=C(/C=C/C(C)=C/C=C/C(C)=C/C=C/C=C(C)/C=C/C=C(C)/C=C/C2=C(C)CCCC2(C)C)C(C)(C)CCC1 [Beta carotene]
TNFSF10
  EFFECT: Beneficial
MIG
  EFFECT: Detrimental

## N.N.[Cl][Pt][Cl] [Cisplatin]
TNFSF10; [3]
  EFFECT: Beneficial

## C=CCc1ccc(O)c(OC)c1 [Eugenol]
CXCL1; [2]
  EFFECT: Beneficial

## Arsenic trioxide
TNFSF10; [3]
  EFFECT: Detrimental; also recorded: Beneficial
MIG; [4]
  EFFECT: Beneficial

## O=S(=O)([O-])[O-].[Zn+2] [Zinc sulfate]
IFNG
  EFFECT: Beneficial

## O=c1[nH]cc(F)c(=O)[nH]1 [Fluorouracil, reference compound]
TNFSF10; [3]
  EFFECT: Beneficial

## CC(=O)N[C@@H](CS)C(=O)O [Acetylcysteine, reference compound]
TNFSF10; [3]
  EFFECT: Detrimental

## Nc1ncn([C@H]2C[C@H](O)[C@@H](CO)O2)c(=O)n1 [Decitabine, 5-aza-2′-deoxycytidine, reference compound]
TNFSF10; [3]
  EFFECT: Beneficial

## CC1=C(/C=C/C(C)=C\C=C\C(C)=C\C(=O)O)C(C)(C)CCC1 [Alitretinoin, reference compound]
TNFSF10; [3]
  EFFECT: Beneficial
IFNG; [1]
  EFFECT: Detrimental
CXCL1; [2]
  EFFECT: Detrimental

## O=C(CCCCCCC(=O)Nc1ccccc1)NO [Vorinostat, reference compound]
TNFSF10; [3]
  EFFECT: Beneficial

## COc1cccc2c1C(=O)c1c(O)c3c(c(O)c1C2=O)C[C@@](O)(C(=O)CO)C[C@@H]3O[C@H]1C[C@H](N)[C@H](O)[C@H](C)O1 [Doxorubicin]
TNFSF10; [3]
  EFFECT: Beneficial

B1: MIG: recombinant mouse MIG (R&D systems, catalog number 492-MM) (protein, UniProt Q07325 23-125, looked up)
C-X-C motif chemokine 9: TPVVRKGRCSCISTNQGTIHLQSLKDLKQFAPSPSCEKIEIIATLKNGVQTCLNPDSADVKELIKKWEKQVSQKKKQKNGKKHQKKKVLKVRKSQRSRQKKTT
Mouse thoracic aortas
  effect on vasorelaxation to Acetylcholine: impairs vascular function

Source: patent US20220291237A1 (priority 2021, published 2022)
